ChEMBL document CHEMBL4017447, “Indenocinnoline derivatives as G-quadruplex binders, topoisomerase IIα inhibitors and antiproliferative agents” (Bioorg Med Chem, 2017)
Calls of active or inactive are those of the source. The rule behind the calls is not given here.

Key:
[1] = Binding affinity to 5'-dabcyl/3'-fluorescein labeled double stranded DNA (unknown origin) assessed as change in melting temperature at 10 uM by fluorescence assay
[2] = species on record: Homo sapiens; test: Binding affinity to 5'-dabcyl/3'-fluorescein labeled human telomeric sequence G-quadruplex DNA assessed as change in melting temperature at 10 uM by fluorescence assay
[3] = Binding affinity to 5'-dabcyl/3'-fluorescein labeled cKit G-quadruplex DNA (unknown origin) assessed as change in melting temperature at 10 uM by fluorescence assay
[4] = Inhibition of Escherichia coli DNA topoisomerase 4 decatenation activity using kinetoplast DNA as substrate after 60 mins by ethidium bromide staining based agarose gel electrophoresis
[5] = species on record: Homo sapiens; test: Binding affinity to human telomeric 22 G-quadruplex DNA assessed as compound concentration required for 30% displacement of thiazole orange from telomeric 22 G-quadruplex DNA by fluorescent intercalator displacement assay
[6] = tested on: Escherichia coli; test: Binding affinity to Escherichia coli supercoiled pBR322 DNA assessed as DNA intercalation by measuring DNA unwinding at 100 uM measured after 1 hr by ethidium bromide staining based agarose gel electrophoresis
[7] = tested on: HeLa; test: Cytotoxicity against human HeLa cells after 72 hrs by MTT assay; assay type: functional, cell-based
[8] = target: DNA topoisomerase 2-alpha (Homo sapiens, UniProt P11388); test: Inhibition of human topoisomerase 2alpha-mediated kinetoplast DNA decatenation after 60 mins by ethidium bromide staining based agarose gel electrophoresis
DNA topoisomerase 2-alpha, sequence (P11388 whole entry): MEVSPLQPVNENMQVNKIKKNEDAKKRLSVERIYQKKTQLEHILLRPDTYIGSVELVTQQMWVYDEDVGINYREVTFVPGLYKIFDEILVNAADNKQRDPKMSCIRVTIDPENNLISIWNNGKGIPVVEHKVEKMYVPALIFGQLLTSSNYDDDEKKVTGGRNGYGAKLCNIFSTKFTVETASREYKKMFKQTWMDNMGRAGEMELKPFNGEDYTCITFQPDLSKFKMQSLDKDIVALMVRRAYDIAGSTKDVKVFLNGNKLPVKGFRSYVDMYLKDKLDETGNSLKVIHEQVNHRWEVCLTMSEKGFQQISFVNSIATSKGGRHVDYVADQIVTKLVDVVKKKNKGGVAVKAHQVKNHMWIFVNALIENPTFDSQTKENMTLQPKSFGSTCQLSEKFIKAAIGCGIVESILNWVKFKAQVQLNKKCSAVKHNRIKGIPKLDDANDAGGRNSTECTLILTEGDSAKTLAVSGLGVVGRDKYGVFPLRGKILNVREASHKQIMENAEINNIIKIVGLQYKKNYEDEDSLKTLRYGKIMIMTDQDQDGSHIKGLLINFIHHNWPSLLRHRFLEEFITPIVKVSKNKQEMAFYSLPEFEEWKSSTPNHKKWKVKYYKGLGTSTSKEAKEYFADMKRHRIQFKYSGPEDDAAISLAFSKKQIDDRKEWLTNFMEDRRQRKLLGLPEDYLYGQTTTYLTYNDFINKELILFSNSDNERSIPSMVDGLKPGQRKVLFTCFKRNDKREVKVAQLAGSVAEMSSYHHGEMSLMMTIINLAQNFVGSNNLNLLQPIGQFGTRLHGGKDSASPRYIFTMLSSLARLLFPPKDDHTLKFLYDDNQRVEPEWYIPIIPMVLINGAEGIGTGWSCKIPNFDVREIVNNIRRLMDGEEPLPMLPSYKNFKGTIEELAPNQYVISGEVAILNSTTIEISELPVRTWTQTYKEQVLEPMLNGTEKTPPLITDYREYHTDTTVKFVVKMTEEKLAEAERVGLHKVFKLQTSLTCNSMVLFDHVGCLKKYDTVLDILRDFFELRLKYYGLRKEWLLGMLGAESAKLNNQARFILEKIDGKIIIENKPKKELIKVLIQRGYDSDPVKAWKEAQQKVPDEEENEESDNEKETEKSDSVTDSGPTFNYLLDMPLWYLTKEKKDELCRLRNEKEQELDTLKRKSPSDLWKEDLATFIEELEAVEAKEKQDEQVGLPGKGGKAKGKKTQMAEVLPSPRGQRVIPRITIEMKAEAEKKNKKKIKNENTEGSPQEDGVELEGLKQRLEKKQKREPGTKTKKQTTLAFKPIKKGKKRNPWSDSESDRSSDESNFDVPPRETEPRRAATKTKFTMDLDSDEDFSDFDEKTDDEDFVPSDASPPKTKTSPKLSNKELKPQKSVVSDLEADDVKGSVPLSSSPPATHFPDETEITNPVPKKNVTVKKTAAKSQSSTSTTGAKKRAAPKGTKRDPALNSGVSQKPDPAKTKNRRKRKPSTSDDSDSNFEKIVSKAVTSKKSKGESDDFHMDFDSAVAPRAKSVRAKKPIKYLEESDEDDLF

[9] = tested on: MCF7; test: Cytotoxicity against human MCF7 cells after 72 hrs by MTT assay; assay type: functional, cell-based; details: MCF7, 72 h
[10] = Binding affinity to double stranded DNA (unknown origin) assessed as compound concentration required for 30% displacement of thiazole orange from double stranded DNA by fluorescent intercalator displacement assay
[11] = Binding affinity to cKit G-quadruplex DNA (unknown origin) assessed as compound concentration required for 30% displacement of thiazole orange from cKit G-quadruplex DNA by fluorescent intercalator displacement assay
[12] = tested on: Escherichia coli; test: Binding affinity to Escherichia coli supercoiled pBR322 DNA assessed as DNA intercalation by measuring DNA unwinding up to 100 uM measured after 1 hr by ethidium bromide staining based agarose gel electrophoresis
[13] = tested on: Escherichia coli; test: Binding affinity to Escherichia coli supercoiled pBR322 DNA assessed as DNA intercalation by measuring DNA unwinding at 10 uM measured after 1 hr by ethidium bromide staining based agarose gel electrophoresis
[14] = tested on: Escherichia coli; test: Inhibition of Escherichia coli DNA topoisomerase 4 decatenation activity up to 100 uM using kinetoplast DNA as substrate after 60 mins by ethidium bromide staining based agarose gel electrophoresis
[15] = tested on: HeLa; test: Potency index, ratio of ametantrone IC50 to compound IC50 for human HeLa cells; assay type: functional
[16] = tested on: MCF7; test: Potency index, ratio of ametantrone IC50 to compound IC50 for human MCF7 cells; assay type: functional
[17] = tested on: Escherichia coli; test: Binding affinity to Escherichia coli supercoiled pBR322 DNA assessed as DNA intercalation by measuring DNA unwinding at 0.1 to 10 uM measured after 1 hr by ethidium bromide staining based agarose gel electrophoresis

SMILES | ΔTm [1] [°C] | ΔTm [2] [°C] | ΔTm [3] [°C] | IC50 [4] [µM] | Activity [5] | IC50 [7] [µM] | IC50 [8] [µM] | IC50 [9] [µM] | Activity [10] [µM] | Activity [11] [µM] | other results
CCN(CC)CCCCNC(=O)c1ccc2nnc3c(c2c1)C(=O)c1ccccc1-3 | 0.53 | 3.77 | 3.01 | – | – | – | – | – | – | – | –
CN(C)CCCOc1ccc2ccc3c4c(nnc3c2c1)-c1ccccc1C4=O | 1.96 | 20.8 | 23.1 | > 100 | 2.43 µM | 2.81 | 29.1 | 9.79 | 4.06 | 0.95 | Activity [6]: Active
CN(C)CCCn1c(=O)c2nc3ccccc3nc2c2ccccc21 | – | – | – | – | inactive | – | – | – | 10.9 | 3.57 | –
CN(C)CCNC(=O)c1ccc2nnc3c(c2c1)C(=O)c1ccccc1-3 | 1.19 | 5.95 | 6.8 | > 100 | – | 0.35 | 13.4 | 0.28 | – | – | Activity [12]: inactive
CN(C)CCOc1ccc2c(ccc3c4c(nnc32)-c2ccccc2C4=O)c1 | – | 5.69 | 9.18 | > 100 | inactive | > 100 | > 100 | > 100 | 16 | 2.08 | deltaTm [1]: inactive; Activity [6]: Active
O=C1c2ccccc2C(=O)c2c(NCCNCCO)ccc(NCCNCCO)c21 [AMETANTRONE] | – | – | – | – | – | 0.9 | – | 0.51 | – | – | –
CN(C)CCOc1ccc2ccc3c4c(nnc3c2c1)-c1ccccc1C4=O | 5.27 | 25.6 | 28 | – | 0.52 µM | 5.96 | 5.44 | 3.72 | 1.36 | 0.47 | Activity [13]: Active; inhibition [14]: inactive
CN(C)CCCOc1ccc2c(ccc3c4c(nnc32)-c2ccccc2C4=O)c1 | 0.85 | 16.1 | 19.2 | > 100 | 4.75 µM | 3.05 | 52.9 | 6.75 | 7.81 | 1.5 | Activity [6]: Active
O=C(NCCCCN1CCCCC1)c1ccc2nnc3c(c2c1)C(=O)c1ccccc1-3 | 0.9 | 6.63 | 5.42 | – | – | – | – | – | – | – | –
O=C(NCCCCN1CCOCC1)c1ccc2nnc3c(c2c1)C(=O)c1ccccc1-3 | – | 4.82 | 4.37 | – | – | – | – | – | – | – | deltaTm [1]: inactive
CN(C)CCCCNC(=O)c1ccc2nnc3c(c2c1)C(=O)c1ccccc1-3 | 2.7 | 9.35 | 12.4 | > 100 | – | 0.045 | 7.08 | 0.085 | – | – | Ratio IC50 [15]: 20; Activity [12]: inactive; Ratio IC50 [16]: 6
COc1ccc2cc3[n+](cc2c1OC)CCc1cc2c(cc1-3)OCO2 | 0.34 | 9.68 | 10.3 | – | > 10 µM | – | – | – | – | > 10 | –
O=C1c2ccccc2-c2nnc3ccccc3c21 | – | – | – | > 100 | – | 0.57 | > 100 | 0.81 | – | – | Activity [12]: inactive
COc1cccc2c1C(=O)c1c(O)c3c(c(O)c1C2=O)C[C@@](O)(C(=O)CO)C[C@@H]3O[C@H]1C[C@H](N)[C@H](O)[C@H](C)O1 | – | – | – | – | – | – | – | – | – | – | Activity [17]: Active
CO[C@@H]1[C@@H](OC(N)=O)[C@@H](O)[C@H](Oc2ccc3c(O)c(NC(=O)c4ccc(O)c(CC=C(C)C)c4)c(=O)oc3c2C)OC1(C)C [NOVOBIOCIN] | – | – | – | 63.4 | – | – | – | – | – | – | –
CN(C)CCCNC(=O)c1ccc2nnc3c(c2c1)C(=O)c1ccccc1-3 | 1.95 | 7.91 | 8.5 | > 100 | – | 0.27 | 4.88 | 0.17 | – | – | Activity [12]: inactive
